Reference: patent US20180344715A1, “WNT/BETA-CATENIN SIGNAL TRANSDUCTION INHIBITORS AND THEIR USE IN TREATMENT OR PREVENTION OF DISEASES AND CONDITIONS LINKED WITH SAID TRANSDUCTION” (BERGEN TEKNOLOGIOVERFORING AS, priority 2015, published 2018)

Tests used:
Wnt/β-catenin signaling = test: TOPFlash reporter assay in 293FT cells; type: cell-based, human; conditions: 1 μM 6BIO together with drug at indicated concentrations, 24 hours
Procedure: TOPFlash assay was performed in 96-well plate. For each well, 293T cells were transfected with 0.22 μg TOPFlash (or FOPFlash with mutant TCF binding sites) and 0.02 μg pRL-SV40P using lipofectamine 3000. For co-transfection with other plasmids, 0.1 μg additional DNA was used. […] The luciferase activity was measured 24 hours later by using Dual-Glo® Luciferase Assay System (Promega, E2940) according to the recommended protocol. The TOPFlash or FOPFlash activity was normalized to Renilla luciferase signals.
TOPFlash assay was performed as described above. Briefly, for each well of a 96-well plate 293FT cells were transfected with 0.22 μg TOPFlash (or FOPFlash with mutant TCF binding sites) and 0.02 μg pRL-SV40P using lipofectamine 3000. For co-transfection with other plasmids, 0.1 μg additional DNA was used. Four hours after transfection, 293FT cells were treated with DMSO, 1 μM 6B10 and 1 μM 6B10 together with pazopanib, orlistat and topotecan at varying concentrations for 24 hours. The luciferase activity was then measured using Dual-Glo® Luciferase Assay System (Promega, E2940) according to the recommended protocol. The TOPFlash or FOPFlash activity was normalized to Renilla luciferase signals.

β-catenin = test: In vivo ubiquitination assay in SW480 cells; type: cell-based; conditions: SW480, with proteasome inhibitor MG132, 6 hours
Procedure: Cells were harvested and re-suspended with 100 μl ice cold TBS (50 mM Tris-HCL pH 8.0, 150 mM NaCl) containing 2 μM N-Ethylmaleimide crystalline that was supplemented to all the following buffers. After adding 120 μl TBS containing 2% SDS and mixing quickly, cells were heated at 98° C. for 10 minutes and placed immediately on ice for 5 minutes. Cell lysates were incubated with 1.8 ml TBS containing 1% Triton X-100 and 3 μg antibody (β-catenin ab22656, clone 12F7, Abcam; SHPRH, ab80129, Abcam), at 4° C. overnight followed by incubation with 100 μl Protein G beads (Life technologies, 10004D) at 4° C. for 1 hour on rotator. Beads were collected with Magnet and serially washed once with 1 ml TBS containing 1% Triton X-100/0.1% SDS, twice with 1 ml TBS containing 0.5M LiCl and once with 1 ml TBS containing 1% Triton X-100. Following addition of 80 μl 2% SDS sample buffer containing 10 mM DTT (Sigma, D9779), the beads were boiled at 98° C. for 5 minutes and collected with Magnet, the supernatant was analyzed by Western blotting.

MED23 = biological target: T1, MED23 (Homo sapiens, UniProt Q9ULK4); test: Chromatin immunoprecipitation (ChIP) of MED23 at Wnt target genes; type: cell-based; conditions: SW480, 5 μM overnight
T1 construct: endogenous in cells; host or cells: SW480
T1 sequence (Q9ULK4 1-1368): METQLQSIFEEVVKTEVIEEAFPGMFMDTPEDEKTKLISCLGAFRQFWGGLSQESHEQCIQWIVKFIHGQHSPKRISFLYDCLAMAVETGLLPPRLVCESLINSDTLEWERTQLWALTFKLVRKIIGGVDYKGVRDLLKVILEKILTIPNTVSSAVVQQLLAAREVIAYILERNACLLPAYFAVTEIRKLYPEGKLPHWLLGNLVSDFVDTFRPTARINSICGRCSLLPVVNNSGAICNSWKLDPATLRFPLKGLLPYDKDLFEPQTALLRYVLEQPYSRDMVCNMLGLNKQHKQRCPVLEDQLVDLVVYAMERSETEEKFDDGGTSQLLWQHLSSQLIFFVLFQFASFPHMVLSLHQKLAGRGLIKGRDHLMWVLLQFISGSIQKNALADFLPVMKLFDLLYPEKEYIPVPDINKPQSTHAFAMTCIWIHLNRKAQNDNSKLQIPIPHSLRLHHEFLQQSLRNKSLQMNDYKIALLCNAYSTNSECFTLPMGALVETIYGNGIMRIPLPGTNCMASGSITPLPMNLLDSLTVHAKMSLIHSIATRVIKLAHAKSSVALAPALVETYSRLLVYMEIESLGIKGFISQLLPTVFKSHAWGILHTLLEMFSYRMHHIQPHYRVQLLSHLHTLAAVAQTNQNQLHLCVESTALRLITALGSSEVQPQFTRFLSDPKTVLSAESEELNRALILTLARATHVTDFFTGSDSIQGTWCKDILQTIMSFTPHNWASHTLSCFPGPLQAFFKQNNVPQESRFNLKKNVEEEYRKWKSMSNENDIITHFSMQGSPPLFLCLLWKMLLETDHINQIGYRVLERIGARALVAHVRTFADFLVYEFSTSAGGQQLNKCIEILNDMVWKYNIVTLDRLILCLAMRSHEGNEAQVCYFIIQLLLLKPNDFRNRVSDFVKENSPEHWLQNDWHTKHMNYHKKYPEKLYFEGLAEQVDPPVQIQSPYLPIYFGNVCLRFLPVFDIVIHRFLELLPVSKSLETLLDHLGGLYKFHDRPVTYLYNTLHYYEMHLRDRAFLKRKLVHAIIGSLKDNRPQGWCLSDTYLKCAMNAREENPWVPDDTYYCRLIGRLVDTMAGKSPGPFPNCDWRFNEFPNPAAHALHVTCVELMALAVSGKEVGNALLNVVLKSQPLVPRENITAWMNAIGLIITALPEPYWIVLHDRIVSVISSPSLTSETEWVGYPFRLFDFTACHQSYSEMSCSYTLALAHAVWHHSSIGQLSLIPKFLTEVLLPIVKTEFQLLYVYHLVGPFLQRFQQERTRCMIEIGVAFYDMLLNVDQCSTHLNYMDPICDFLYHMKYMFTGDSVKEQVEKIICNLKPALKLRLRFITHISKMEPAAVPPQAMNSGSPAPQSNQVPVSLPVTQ
Procedure: ChIP was performed according to the protocol previously described with a few modifications on the crosslinking procedures (Ke, X. S. et al., 2009, PLoS One 4, e4687). […] The reaction was quenched with 1/50 volume of 2.5 M glycine. Cells were lysed and the nuclei were sonicated to fragments ranging from 200 bp to 500 bp. After saving 0.2% total chromatin for input DNA purification, sonicated lysates were equally divided to three tubes and immunoprecipitated with Protein G beads (Life technologies, 10004D) coupled with 5 μg mouse IgG (15381, Sigma), antibody against MED23(BD550429, clone D27-1805, BD Biosciences) and β-catenin (ab22656, clone 12F7, Abcam), respectively. The immunoprecipitated DNA was purified and examined by PCR described below.
To determine the purified DNA from ChIP samples, quantitative PCR was performed with RT^2 SYBR Green/ROX PCR Master Mix and the PCR reactions were examined by 2% agarose gel electrophoresis. PCR primers were designed to cover the canonical TCF/β-catenin binding motifs of 6 randomly chosen β-catenin target genes (shown in FIG. 4c). The sequences and genomic locations (NCBI36/hg18) of PCR primers are listed below. GAPDH was used as a negative control.

SW480-7TGC cells = test: Flow cytometry of SW480-7TGC cells with Hoechst33342; type: cell-based; conditions: 24 hours
Procedure: To establish stable cell lines containing Wnt reporters, lentiviral vector 7TGC or 7TC together with packaging plasmids pMD2.G and pCMVR8.74 were co-transfected into 293FT cells with lipofectamine 3000. After 16 hours, culture medium was replaced with medium for cells of interest. One day later, the culture medium was filtered through a 0.45 μm filter and incubated with cells for 24 hours. The transduced cells were assessed by fluorescence microscopy and fluorescence-activated cell sorting (FACS Aria, BD Biosciences).

CNC(=O)c1ccccc1Sc1ccc2c(/C=C/c3ccccn3)n[nH]c2c1 [axitinib, N-Methyl-2-[[3-[(E)-2-pyridin-2-ylethenyl]-1H-indazol-6-yl]sulfanyl]benzamide]
TOPFlash activity normalized to Renilla luciferase activity (Wnt/β-catenin signaling): dose dependently inhibits | ubiquitination of β-catenin (β-catenin): increased its ubiquitination | MED23 occupancy at TCF/LEF-binding motifs of Wnt target genes (MED23): reduced | TCF-GFP^low cells (SW480-7TGC cells): increased | apoptosis in TCF-GFP^low cells (SW480-7TGC cells; Hoechst33342): induced apoptosis
